Columns and labels:
[1] = system: NSCLC cell lines HCC-827, H1975, PC-9 and H1781; assay: CellTiter-Glo cell viability in NSCLC cell lines; type: cell-based; details: 98-50000 nM, 3 days; HCC-827, H1975, PC-9, H1781
Experimental: The NSCLC cell lines HCC-827 (EGFR L858R), H1975 (EGFR L858R/T790M) PC-9 (EGFR Del E746_A750) and H1781 (HER2 G7776insV G/C) were treated with MPC-0767 at a concentration range of 98-50000 nM for 3 days, after which time cell viability was determined using CellTiter-Glo® reagent.

[2] = system: cell surface FLT3 in MOLM-13 cells; assay: Cell surface FLT3 by flow cytometry; type: cell-based, human; details: 24 hours
Experimental: (§1) To determine whether MPC-0767 can promote the degradation of FLT3-ITD and abolish downstream signaling, MV-4-11 and MOLM-13 cells were treated with vehicle or MPC-0767 (1 μM) for 24 hours. Cells were harvested for flow cytometry to assess cell surface FLT3 protein abundance. In addition, the measurement of a key phosphorylation site of S6 (phospho-S6) was used as a marker for oncogenic FLT3-ITD signaling (Zimmerman et al., Blood. 2013 122(22): 3607-3615). Indeed, in both MV-4-11 and MOLM-13 cells treated with MPC-0767 there was a >65% reduction in cell surface FLT3 (FIGS. 10A and 10B, respectively) and >70% reduction in phospho-S6 (FIGS. 10C and 10D, respectively).
We next explored whether the synergistic activity of MPC-0767 and ATO was due to a more complete abrogation of FLT3-ITD oncogenic signaling. […] After this time cells were harvested for the assessment of cell surface FLT3 expression by flow cytometry. To additionally measure the effects of abrogating FLT3, we assessed phospho-ERK (pERK) and phospho-S6 (pS6), as these are two known downstream effectors.

[3] = system: phospho-S6 in MV-4-11 cells; assay: Phospho-S6 by flow cytometry; type: cell-based; details: MV-4-11, 1 μM, 24 hours
Experimental: as §1

[4] = system: BaF3 cells harboring FLT3-ITD F691L; assay: CellTiter-Glo cell viability; type: cell-based, murine; details: Mus musculus; BaF3 FLT3-ITD-F691L, 72 hours
Experimental: EC50 values were calculated using equation 1 (as described above).

NOMO1 (NOMO-1) cells = assay: CellTiter-Glo cell viability (single agent and combination); type: cell-based; details: NOMO1, 72 h
HL60 (HL-60) cells = assay: as above; type: cell-based; details: HL60, 72 h
OCI-AML2 AML cell line = assay: In vitro T-cell-mediated killing assay (active caspase-3); type: cell-based; details: MPC-0767 2 μM overnight, then pp65 enriched CD8+ T cells 4 hours
Experimental: The ability of MPC-0767 to increase T cell killing was determined in an in vitro T-cell-mediated killing assay. The OCI-AML2 AML cell line was labeled with the cell staining dye CFSE and treated overnight with MPC-0767 (2 μM) and human cytomegalovirus pp65495-503 peptide. […] After 4 hours of co-culture, cells were harvested, fixed, permeabilized, and stained for the active form of caspase-3 as a direct read-out of apoptotic cell death.
The CI is a quantitative measure used to determine whether the combined effect of a drug pair is synergistic, additive, or antagonistic. The CI is calculated as CI=(E1+E2)/E12, where E12 is a normalized biological response (e.g., % Caspase-3+ cells) for the combination of Drug A and Drug B, and E1 and E2 are the response measured for each single drug treatment, respectively. CI values less than 1 indicate synergy, with the magnitude of the effect indicated by how much less than 1 the synergy score is. A more detailed mathematical treatment of this relationship is described in Shin et al. 2018.

[5] = system: PD-L1 on tumor infiltrating leukocytes (CD45+, CD3−); assay: PD-L1 on tumor infiltrating leukocytes in MC38 tumors; type: in vivo, mouse; details: 150 mg/kg QD×7
Experimental: To test if MPC-0767 may induce an anti-tumor immune response in addition to direct cytotoxic activity, down regulation of PD-Ll and the effector/regulatory T-cell ratio was measured in the same MC38 syngeneic model. On day 21, when the average tumor volume was 372 mm^3 in size, a second group of mice (n=6) was treated with 150 mg/kg MPC-0767 QD×7. One day post the last dose (day 28 post inoculation) tumors were harvested from the vehicle and 150 mg/kg MPC-0767 QD×7 group. Tumor infiltrating leukocytes (CD45^+, CD3^−) within the dissociated tumors were analyzed for PD-L1 expression by flow cytometry.

[6] = system: PD-1+ Jurkat reporter cells with THP-1 AML cells; assay: Jurkat NFAT-luciferase reporter T cell activation with THP-1 cells; type: cell-based; details: THP-1 treated overnight with IFNγ and MPC-0767 1 μM or 2 uM
Excerpt: The addition of antibodies that block the PD-1/PD-L1 pathway stimulate an increased T cell response in vitro, in pre-clinical animal models, and in cancer patients. This can lead to tumor regressions or tumor clearance in patients. To examine MPC-0767 effects on PD-L1 and T cell activation, we used a model system in which PD-1+ Jurkat T cells express luciferase under the control of the NFAT promoter (Promega, hereafter referred to Jurkat reporter cells). When T cells are stimulated through the T cell receptor (TCR), activation of the NFAT pathway drives expression of luciferase.
We next determined whether MPC-0767 reduction of PD-L1 could increase T cell stimulation similar to anti-PD-L1 blocking antibodies. THP-1 cells were treated overnight with IFNγ in the presence or absence of MPC-0767 (1 μM or 2 uM). THP-1 cells were washed and a portion saved for flow cytometry analysis of PD-L1 expression. The remaining cells were incubated with Jurkat reporter cells and anti-CD3 (10 ng/ml) for 6 hours.

[7] = system: MV-4-11 cell line (AML FLT3-ITD) xenograft; assay: Subcutaneous MV-4-11 xenograft study; details: oral, 200 mg/kg QD×2 days then 150 mg/kg QD×15 days
Experimental: Each mouse was inoculated subcutaneously in the right flank with 5×10^6 tumor cells in 0.1 ml PBS/Matrigel (1:1). When the mean tumor volume reached 91 mm^3 in size, mice were randomized into 2 groups of 10. […] Tumor measurements (caliper) were taken on the indicated days. […] Student t-test was used to evaluate the statistical significance of the difference between these groups P<0.0001.

[8] = system: MOLM-13 FLT3-ITD AML cell line; assay: Systemic survival xenograft study, MPC-0767 with venetoclax; details: MPC-0767 100-60 mg/kg QD×24, vs vehicle
Experimental: (§2) A systemic survival xenograft study was performed using the MOLM-13 FLT3-ITD harboring AML cell line.
Before tumor cell inoculation, NOD/SCID mice were pre-treated for 2 days with a daily intraperitoneal injection of 100 mg/kg cyclophosphamide to facilitate engraftment of the human MOLM-13 tumor cells. After the injection of cyclophosphamide, the animals were allowed to recover for 24 hours prior to inoculation with human MOLM-13 tumor cells. Each mouse was then inoculated with 1×10^7 MOLM-13 cells in 100 μL PBS via intravenous tail vein injection. Mice were next randomized into 4 groups of 6. […] Viability and body weight loss were monitored daily.

[9] = system: MOLM-13 FLT3-ITD AML cell line; assay: Systemic survival xenograft study, MPC-0767 with 5′azacitidine; details: single agents: MPC-0767 75 mg/kg p.o.; 5′azacitidine 2 mg/kg QD×4 i.p.; vs vehicle
Experimental: as §2
Before tumor cell inoculation, NOD/SCID mice were pre-treated for 2 days with a daily intraperitoneal injection of 100 mg/kg cyclophosphamide to facilitate engraftment of the human MOLM-13 tumor cells. After the injection of cyclophosphamide, the animals were allowed to recover for 24 hours prior to inoculation with human MOLM-13 tumor cells. Each mouse was then inoculated with 1×10^7 MOLM-13 cells in 100 μL PBS via intravenous tail vein injection. Mice were next randomized into 4 groups of 6 mice each. […] Viability and body weight loss were monitored daily.

**Q.** With `C[C@H](N)C(=O)O[C@@H](C)C(=O)N1CCC(CCn2c(Sc3cc4c(cc3Br)OCO4)nc3c(N)ncnc32)CC1` [MPC-0767] as the molecule, how does the “EC50 (cell viability)” value [1] read?
**A.** The value was “within clinically achievable concentrations”.

**Q.** What about the “reduction in cell surface FLT3” value ([2]; MOLM-13, 1 μM) of the same molecule?
**A.** The value was > 65%.

**Q.** What about the “FLT3 level (cell surface)” value ([2]; MOLM-13, MPC-0767 800 nM, ATO 625 nM or combination) of the same molecule?
**A.** The value was “reduced”.

**Q.** What about the “reduction in phospho-S6” value [3] of the same molecule?
**A.** Its value is > 70%.

**Q.** What about the EC50 [4] of the same molecule?
**A.** Its EC50 is 391 nM.

**Q.** And the EC50 (NOMO1 (NOMO-1) cells; Homo sapiens, NOMO-1)?
**A.** The EC50 was 1450 nM.

**Q.** What about the “MPC-0767 Sensitivity” value (NOMO1 (NOMO-1) cells) of the same molecule?
**A.** Its value is “Resistant (EC50 values above 1 μM considered resistant)”.

**Q.** What about the “MPC-0767 Sensitivity” value (HL60 (HL-60) cells) of the same molecule?
**A.** The value was “Resistant (EC50 values above 1 μM considered resistant)”.

**Q.** What about the EC50 (HL60 (HL-60) cells; Homo sapiens, HL-60) of the same molecule?
**A.** The EC50 was 1960 nM.

**Q.** What about the “Combination Index (CI) for apoptotic (active caspase-3+) cells” value (OCI-AML2 AML cell line) of the same molecule?
**A.** Its value is 0.53.

**Q.** What about the “PD-L1 expression on tumor infiltrating leukocytes” value [5] of the same molecule?
**A.** The value was “significant reduction of PD-L1”.

**Q.** What about the “inhibition of T cell activation” value [6] of the same molecule?
**A.** The value was “dose-dependently reduce inhibition of T cell activation”.

**Q.** And the “effect on body weight” value [7]?
**A.** Its value is “without significant effects on body weight”.

**Q.** What about the tumor regression [7] of the same molecule?
**A.** Its tumor regression is 84%.

**Q.** What about the “complete tumor regression (animals)” value ([7]; n=10) of the same molecule?
**A.** Its value is 5/10 and Five.

**Q.** And the “increase in median survival” value [8]?
**A.** The value was 3.5 days.

**Q.** And the “increase in median survival” value [9]?
**A.** Its value is 5.5 days.

From patent publication US20200253979A1, “THERAPEUTIC METHODS RELATING TO HSP90 INHIBITORS” (AI Therapeutics, Inc., priority 2017, published 2020)
